According to US10385072B2, “Gold(III) complexes as anticancer agents and a method of treating cancer” (King Fahd University of Petroleum and Minerals, priority 2017, dated 2019):

Legend:
Assay type in all cases: cell-based, human
PC3 cells = assay: Cell proliferation assay (MTT/MTS), PC3; details: 72-120 h, MTT or MTS, mean±SEM
Description: (§1) Hodgkin's lymphoma cell line (L-540) and human androgen-resistant prostate cancer cell line (PC3) were obtained from the German Collection of Microorganisms and Cell Cultures (Braunschweig, Germany). Human breast adenocarcinoma cell line MCF-7 cell line (HTB-22™) was obtained from the American Type Culture Collection (ATCC, Rockville, Md., USA). Human ovarian epithelial carcinoma-derived cancer cells A2780 and its cisplatin-resistant clone A2780cis were from Sigma Inc (St. Louis, Mo., USA), and the isogenic cisplatin-resistant 2780CP-16 cells were cultured as previously described (Siddik, Z. H.; Mims, B.; Lozano, G.; Thai, G. Independent pathways of p53 induction by cisplatin and X-rays in a cisplatin-resistant ovarian tumor cell line. Cancer Res. 1998, 58, 698-703, incorporated herein by reference in its entirety). A panel of non-small cell lung cancer (NSCLC) cell lines (H460, A549, H226, H838, H157, H1975, H2122, SKLU1 and H1299) was obtained from Dr. Garth Powis at MD Anderson Cancer Center. […]
(§2) PC3 and MCF-7 cells (2.5×10^3), A2780, A2780cis (4.0×10^3), A2780CP-16 and lung cancer cells (H460, A549, H226, H838, H157, H1975, H2122, SKLU1 and H1299) were seeded in 96-well flat-bottomed microplates (100 μL) and incubated for 24 h (to allow cell adhesion) before drug testing. […] After treatment, cell proliferation was evaluated by the MTS assay (Promega). […]

L-540 cells = assay: Cell proliferation assay (MTS), L-540; details: mean±SEM
Description: as §1, §2

[1] = test system: cisplatin-resistant A2780cis cells; assay: Cell proliferation assay (MTT/MTS), A2780cis; details: for IC50: cisplatin-resistant A2780cis cells, 72-120 h, MTT or MTS, mean±SEM
Description: Hodgkin's lymphoma cell line (L-540) and human androgen-resistant prostate cancer cell line (PC3) were obtained from the German Collection of Microorganisms and Cell Cultures (Braunschweig, Germany). Human breast adenocarcinoma cell line MCF-7 cell line (HTB-22™) was obtained from the American Type Culture Collection (ATCC, Rockville, Md., USA). Human ovarian epithelial carcinoma-derived cancer cells A2780 and its cisplatin-resistant clone A2780cis were from Sigma Inc (St. Louis, Mo., USA), and the isogenic cisplatin-resistant 2780CP-16 cells were cultured as previously described (Siddik, Z. H.; Mims, B.; Lozano, G.; Thai, G. Independent pathways of p53 induction by cisplatin and X-rays in a cisplatin-resistant ovarian tumor cell line. Cancer Res. 1998, 58, 698-703, incorporated herein by reference in its entirety). A panel of non-small cell lung cancer (NSCLC) cell lines (H460, A549, H226, H838, H157, H1975, H2122, SKLU1 and H1299) was obtained from Dr. Garth Powis at MD Anderson Cancer Center. Cell lines were further authenticated for their origin by BMR Genomics according to Cell ID System (Promega) protocol and using Genemapper ID Ver 3.2.1 to identify DNA short tandem repeat profiles. The […] cisplatin-resistant subclone (A2780cis) was maintained by weekly treatment with 1 μM cisplatin (Casagrande, N.; Celegato, M.; Borghese, C.; Mongiat, M.; Colombatti, A.; Aldinucci, D. Preclinical activity of the liposomal cisplatin Lipoplatin in ovarian cancer. Clin. Cancer Res. 2014, 20(21), 5496-5506, incorporated herein by reference in its entirety).
Cells were cultured in 5% CO2 in RPMI (for L-540, A2780, A2780cis, 2780CP-16, PC3 and the panel of lung cancer cells) or DMEM (for MCF-7 cells) media supplemented with 10% heat-inactivated fetal calf serum (FCS; Sigma-Aldrich-Italy), 0.2 mg/ml penicillin/streptomycin and 0.1% (w/v) L-gluamine (Biocrom) at 37° C. in a 5% CO2 fully humidified atmosphere.
(§3) Gold(III) compounds were dissolved in DMSO (final concentration of the gold(III) complexes was 10 mM) and stored at −80° C. in volumes of 500 μL or aliquoted into volumes of 10 μL and stored at −20° C. (used once without refreezing). They were then diluted in RPMI medium immediately before use. The culture medium with the same amount of drug-free DMSO was used as negative control.
as §2

[2] = test system: L-540, PC3, MCF-7, A2780 and A2780cis cell lines; assay: In vitro cytotoxicity across the cell line panel, compared with cisplatin; details: all cell lines tested
Method: (§4) PC3 and MCF-7 cells (2.5×10^3), A2780, A2780cis (4.0×10^3), A2780CP-16 and lung cancer cells (H460, A549, H226, H838, H157, H1975, H2122, SKLU1 and H1299) were seeded in 96-well flat-bottomed microplates (100 μL) and incubated for 24 h (to allow cell adhesion) before drug testing. The medium was then removed and replaced with fresh medium which separately contained cisplatin and the gold(III) compounds 1 to 9 at increasing concentrations (from 0.01 to 100 μM) at 37° C. for 72-120 h. Each treatment was performed in triplicate. Cell proliferation was assayed using the MTT assay or the MTS assay. […] After treatment, cell proliferation was evaluated by the MTS assay (Promega). […] The dependency of the anticancer activity of the gold(III) compounds on the type of p53 or the absence of p53 was assessed in A2780 cells following p53 knockdown by CRISPR (Cong, L.; Ran, F. A.; Cox, D.; Lin, S.; Barretto, R.; Habib, N.; Hsu, P. D.; Wu, X.; Jiang, W.; Marraffini, L. A.; Zhang, F. Multiplex genome engineering using CRISPR/Cas systems Science. 2013, 15; 339 (6121), 819-23, incorporate herein by reference in its entirety). […]

A2780 cells = assay: Cell proliferation assay (MTT/MTS), A2780; details: 72-120 h, MTT or MTS, mean±SEM
Description: as §1, §2

A549 cells = assay: Dose-response curves in A549 cells; details: 5 days after contacting
Method: as §3
as §4, with “h.” for “h. Each treatment was performed in triplicate. Cell proliferation was assayed using the MTT assay or the MTS assay.”

[3] = test system: NSCLC cell lines (H460, A549, H226, H838, H157, H1975, H2122, SKLU1 and H1299); assay: Cell proliferation assay, NSCLC panel grouped by p53 status; details: range over the NSCLC panel (WT-, Mut- and Null-p53)
Description: as §1, §2

[4] = test system: WT-p53 A2780 ovarian cancer cells (CRISPR Control); assay: MTT assay, A2780 transfected with CRISPR control plasmid; details: A2780 clone with control plasmid
Method: as §4

[5] = test system: A2780 ovarian cancer cells (CRISPR p53 KO); assay: MTT assay, A2780 with p53 knocked out by CRISPR/Cas9; details: A2780 clone with p53 knocked out
Method: as §4

MCF-7 cells = assay: Cell proliferation assay (MTT/MTS), MCF-7; details: 72-120 h, MTT or MTS, mean±SEM
Description: as §1, §2

[6] = test system: cisplatin-resistant 2780CP cells; assay: Cell proliferation assay, 2780CP-16; details: 2780CP versus A2780
Description: Hodgkin's lymphoma cell line (L-540) and human androgen-resistant prostate cancer cell line (PC3) were obtained from the German Collection of Microorganisms and Cell Cultures (Braunschweig, Germany). Human breast adenocarcinoma cell line MCF-7 cell line (HTB-22™) was obtained from the American Type Culture Collection (ATCC, Rockville, Md., USA). […]
as §4, with “testing.” for “testing. The medium was then removed and replaced with fresh medium which separately contained cisplatin and the gold(III) compounds 1 to 9 at increasing concentrations (from 0.01 to 100 μM) at 37° C. for 72-120 h. Each treatment was performed in triplicate. Cell proliferation was assayed using the MTT assay or the MTS assay.”

CN(C)C(=S)[S][Au+2].Cc1ccc(-c2ccc(C)cn2)nc1.[Cl-].[Cl-] [Compound 4]
IC50 (PC3 cells): 0.59 ± 0.05 µM | IC50 (L-540 cells): 2.7 ± 0.22 µM | IC50 [1]: 0.17 ± 0.01 µM | activity compared with cisplatin [2]: generally more effective than cisplatin | IC50 (A2780 cells): 0.28 ± 0.03 µM | potency from dose-response curves in A549 cells (A549 cells): greater potencies than compounds 3, 6, and 9 | IC50 [3]: 0.12 to 0.31 µM | IC50 [4]: 0.087 ± 0.003 µM | IC50 [5]: 0.083 ± 0.003 µM | IC50 (MCF-7 cells): 0.28 ± 0.02 µM

cis-[Pt(NH3)2Cl2] [Cisplatin, reference compound]
IC50 (PC3 cells): 3.3 ± 0.3 µM | IC50 (L-540 cells): 2.5 ± 0.1 µM | fold higher IC50 in A2780cis than in A2780 ([1]; A2780cis versus A2780): about 7 fold | IC50 [1]: 10.4 ± 0.9 µM | Fold resistance A2780cis/A2780 ratio ([1]; ratio of IC50 in A2780cis to IC50 in A2780): 6.93 | IC50 (A2780 cells): 1.5 ± 0.1 µM | fold cisplatin resistance of 2780CP cells [6]: 20 fold | IC50 (MCF-7 cells): 22.2 ± 0.2 µM
